Experimental data: US5225411A, “Disubstituted polymethyleneimines” (priority 1990, dated 1993)

Tests used:
[1] = tested on: Chinese Hamster Pulmonary Line DC-3F/AD; assay: Increase in the cytotoxicity of actinomycin D on the Chinese hamster pulmonary line DC-3F/AD; format: cell-based; conditions: 4 days;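 also: DC-3F/AD is an extremely resistant cell line whose resistance factor exceeds 10,000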
From the text: The cytotoxic agent used was actinomycin D.
Line DC-3F/AD is an extremely resistant line. Its resistance factor is higher than 10,000.

[2] = tested on: line P 388/ADR 10; assay: Flow cytometry, increase in fluorescence of ADR on the line P 388/ADR 10; format: cell-based, murine; conditions: ADR 50 μM, 5 h
Method: (§1) By measuring that fluorescence it is possible to obtain a relative measurement of the intracellular concentration of ADR.
(§2) […] After 5 hours' incubation, the intracellular uptake of adriamycin was evaluated by FCM.
(§3) The analysis of each of the samples was carried out on a total of 10,000 cells at a speed of 1000 cells/sec.
(§4) The results were presented in the form of linear histograms of the intracellular ADR fluorescence.
(§5) Expression of the Results
(§6) For each of the histograms, the channel mean fluorescence was determined by the apparatus information system. For all experiments:
(§7) A negative control (cells without ADR) fixed the autofluorescence threshold.
(§8) A positive control (cells with ADR) determined the MEAN value=MN1.
(§9) The "test" tubes (cells with ADR and with compound) were used to determine, for each of the compounds and at each of the concentrations, the MEAN values=MN2.
(§10) The results are expressed in the form of variations from the mean fluorescence obtained for each of the "test" tubes (MN2) in relation to the mean fluorescence obtained with the […] (MNl) : VAR-MEAN=MN2 -MN1. The parameter expressed is thus the increase in the fluorescence of adriamycin in the presence of the tested compounds.

[3] = tested on: line DC-3F/AD; assay: Flow cytometry, increase in fluorescence of ADR on the line DC-3F/AD; format: cell-based, Chinese Hamster; conditions: ADR 50 μM, 5 h
Method: as §1, §2, §3, §4, §5, §6, §7, §8, §9, §10

[4] = tested on: murine leukaemia P 388/ADR 10; assay: Evaluation of the increase in cytotoxicity of adriamycin on the line P 388/ADR-10 in vitro (reversion factor); format: cell-based; conditions: adriamycin, P 388/ADR-10, 48 h, TOX = toxic
Method: In this study, the cytotoxicity of adriamycin was measured in the absence and in the presence of the reversing compound.
The compounds tested for their capacity to reverse MDR are added at the same time as the cytotoxic agent. The cells are then incubated for 48 hours.

Row | Compound | Reversion Factor (RF) ([1]; compound 5 μM) | Reversion Factor (RF) ([1]; compound 10 μM) | Reversion Factor (RF) ([1]; compound 20 μM) | Increase in fluorescence of ADR (VAR-MEAN = MN2 - MN1) ([2]; compound 2 μM) | Increase in fluorescence of ADR (VAR-MEAN = MN2 - MN1) ([2]; compound 5 μM) | Increase in fluorescence of ADR (VAR-MEAN = MN2 - MN1) ([2]; compound 10 μM) | Increase in fluorescence of ADR (VAR-MEAN = MN2 - MN1) ([2]; compound 20 μM) | Reversion Factor (RF) ([1]; compound 2.5 μM) | Increase in fluorescence of ADR (VAR-MEAN = MN2 - MN1) ([3]; compound 2 μM) | Increase in fluorescence of ADR (VAR-MEAN = MN2 - MN1) ([3]; compound 5 μM) | Increase in fluorescence of ADR (VAR-MEAN = MN2 - MN1) ([3]; compound 10 μM) | Increase in fluorescence of ADR (VAR-MEAN = MN2 - MN1) ([3]; compound 20 μM) | Reversion Factor (RF) ([4]; compound 5 μM) | Reversion Factor (RF) ([4]; compound 10 μM) | Reversion Factor (RF) ([4]; compound 2.5 μM)
1 | CN(C)CCCN1c2ccccc2Sc2ccc(Cl)cc21 [CHLOROPROMAZINE] | < 13 | < 12 | < 13 | 3.30 | 5.15 | 4.60 | 6.20 | – | – | – | – | – | – | – | –
2 | O=c1[nH]c2ccccc2n1C1CCN(CCCC(c2ccc(F)cc2)c2ccc(F)cc2)CC1 [PIMOZIDE] | 28 | 78 | TOX | 25.60 | 49.42 | 73.13 | 73.64 | < 10 | 5.85 | 8.85 | 15.65 | 21.60 | – | – | –
3 | C=C[C@H]1C[N@@]2CC[C@H]1C[C@@H]2[C@@H](O)c1ccnc2ccc(OC)cc12 [QUINIDINE] | < 12 | < 12 | < 12 | 6.65 | 12.80 | 22.00 | 29.90 | – | – | – | – | – | 6 | 17.4 | –
4 | c1ccc2c(c1)Nc1ccccc1S2 [PHENOTHIAZINE] | < 12 | < 12 | < 12 | 0.00 | 0.00 | 0.00 | 0.00 | – | – | – | – | – | 23.1 | – | 9.4
5 | C=CCNc1nc(NCC=C)nc(N2CCC(N(C)CC(c3ccccc3)c3ccccc3)CC2)n1 [Example 4, 1-[4,6-bis(allylamino)-2-s-triazinyl)-4-[N-(2,2-di-phenylethyl)-N-methylamino]piperidine] | 218 | 1256 | – | – | – | – | – | – | 12.3 | 24.1 | 41.9 | 49.0 | 32.3 | 171.1 | 34.7
6 | C=CCNc1nc(NCC=C)nc(N2CCC(NCCC(c3ccc(OC)c(OC)c3)c3ccc(OC)c(OC)c3)CC2)n1 [Example 12, 1-[4,6-bis(allylamino)-2-s-triazinyl]-4-[3,3-bis(3,4-dimethoxyphenyl)propylamino]piperidine] | < 16.5 | < 16.5 | – | – | – | – | – | – | 6.1 | 3.8 | 5.5 | 9.6 | 8 | TOX | 1.4
7 | CCN(CC)CCCC(C)Nc1c2ccc(Cl)cc2nc2ccc(OC)cc12 (stereo not drawn) [QUINACRINE] | < 13 | < 12 | TOX | 11.83 | 15.73 | 27.73 | 52.77 | – | 2.00 | 10.5 | 19.1 | 25.8 | – | – | –
8 | COC(=O)C1=C(C)NC(C)=C(C(=O)OC)C1c1ccccc1[N+](=O)[O-] [NIFEDIPINE] | – | – | – | 0.00 | 0.80 | 5.95 | 3.40 | – | – | – | – | – | – | – | –
9 | COc1ccc(CCN(C)CCCC(C#N)(c2ccc(OC)c(OC)c2)C(C)C)cc1OC (stereo not drawn) [reference compound] | – | – | – | 9.89 | 21.90 | 39.62 | 56.50 | – | 2.00 | 2.60 | 7.55 | 11.45 | – | – | –
10 | COc1ccc([C@@H]2Sc3ccccc3N(CCN(C)C)C(=O)[C@@H]2OC(C)=O)cc1 [DILTIAZEM] | < 11 | < 10 | < 11 | 3.10 | 6.65 | 13.45 | 23.15 | – | – | – | – | – | – | – | –
11 | Fc1ccc(C(c2ccc(F)cc2)N2CCN(C/C=C/c3ccccc3)CC2)cc1 [FLUNARIZINE] | < 13 | 16 | TOX | 7.35 | 10.10 | 19.90 | 41.00 | – | – | – | – | – | – | 25 | –
12 | C=C[C@H]1C[N@@]2CC[C@H]1C[C@H]2[C@H](O)c1ccnc2ccc(OC)cc12 [QUININE] | < 10 | < 10 | < 11 | 4.85 | 5.40 | 12.00 | 18.90 | – | – | – | – | – | – | 14.5 | –
13 | OCCN(CCO)c1nc(N2CCCCC2)c2nc(N(CCO)CCO)nc(N3CCCCC3)c2n1 [DIPYRIDAMOLE] | < 12 | < 11 | < 12 | 2.35 | 7.55 | 21.75 | 40.00 | – | – | – | – | – | – | – | –
14 | C=CCNc1nc(NCC=C)nc(N2CCC(SCCC(c3ccccc3)c3ccccc3)CC2)n1 [Example 2, 1-[4,6-bis(allylamino)-2-s-triazinyl]-4-(3,3-diphenylpropylthio)piperidine] | 17 | 171 | – | – | – | – | – | – | 0.2 | 10.4 | 25.1 | 35.0 | 65.1 | 86.4 | 15.4
15 | CN1CCN(CCCN2c3ccccc3Sc3ccc(C(F)(F)F)cc32)CC1 [TRIFLUOPERAZINE] | < 12 | 38 | TOX | 11.45 | 14.75 | 34.55 | 51.05 | – | 0.00 | 0.00 | 4.10 | 13.40 | – | – | –
16 | COC(=O)[C@@H]1[C@H]2C[C@H]3c4[nH]c5ccccc5c4CCN3C[C@@H]2CC[C@@H]1O [YOHIMBINE] | < 12 | < 12 | < 12 | 2.30 | 0.05 | 4.70 | 3.45 | – | – | – | – | – | – | – | –
17 | CC(=O)[C@H]1CC[C@H]2[C@@H]3CCC4=CC(=O)CC[C@]4(C)[C@H]3CC[C@]12C [PROGESTERONE] | < 10 | < 10 | 13 | 1.85 | 1.00 | 6.85 | 11.80 | – | – | – | – | – | 1.7 | 2.5 | –
